The values below come from article PMC12731165, “Dual Modulation of Cardiac Ion Pumps: A Small-Molecule SERCA2a SUMOylation Enhancer Also Inhibits the Na^+/K^+-ATPase” (Biomedicines, 2025).

For assay [1], the target named is T1, Na^+/K^+-ATPase (NKA), α1 isoform (Sus scrofa, UniProt P05024).
T1 construct: gene ATP1A1; native enzyme purified from porcine kidney outer medulla (α/β heterodimer); with NKA β-subunit (α/β heterodimer)
The experiment in a line: ouabain-sensitive ATPase activity, NADH-coupled assay at […] nm, […] °C. Type of assay: biochemical.

For assay [2], the target named is T1, Na^+/K^+-ATPase (NKA), α1 isoform. The assay is described as follows: ouabain-sensitive ATP hydrolysis ([…] ouabain), NADH-coupled assay. It counts as biochemical.

As a reminder, the IC50 is the point on the concentration scale where inhibition reaches its midpoint. Read a high IC50 as lower potency. As to `COc1ccc(-c2nnc(Nc3nc4c(OC)cccc4s3)o2)cc1` [N106, N-(4-methoxy-1,3-benzothiazol-2-yl)-5-(4-methoxyphenyl)-1,3,4-oxadiazol-2-amine], the midpoint of inhibition in assay [1], the IC50, lay at 7 ± 1 µM. In the case of `C[C@@H]1O[C@@H](O[C@H]2C[C@@H](O)[C@]3(CO)[C@H]4[C@H](O)C[C@]5(C)[C@@H](C6=CC(=O)OC6)CC[C@]5(O)[C@@H]4CC[C@]3(O)C2)[C@H](O)[C@H](O)[C@H]1O` [ouabain], in assay [2], the “ouabain-sensitive ATP hydrolysis (500 μM ouabain), NADH-coupled assay” value is on record as “The enzymatic activity was verified through ouabain (OUA)-sensitive ATP hydrolysis assays prior to use in experiments”.
